Source: patent publication US6962918B2, “Hexahydropyrazino[1'2';1,6]pyrido[3,4-b]indole-1,4-diones for the treatment of cardiovascular disorders and erectile dysfunction” (Lilly Icos LLC., priority 2000, dated 2005)

Tests used:
recombinant human PDE5 = recombinant human PDE5 (Homo sapiens, UniProt O76074); assay: Inhibitory effect on cGMP-PDE (PDE5 IC50), one-step assay adapted from Wells et al.; assay type: biochemical; details: 0.15 μM 8-[H3]-cGMP, 30 minutes incubation, 2% DMSO
Procedure: The compounds of structural formula (I) were tested for an ability to inhibit PDE5. The ability of a compound to inhibit PDE5 activity is related to the IC50 value for the compound, i.e., the concentration of inhibitor required for 50% inhibition of enzyme activity. The IC50 value for compounds of structural formula (I) were determined using recombinant human PDE5.
(§1) cGMP-PDE activity of compounds of the present invention was measured using a one-step assay adapted from Wells et al., Biochim. Biophys. Acta, 384, 430 (1975). The reaction medium contained 50 mM Tris-HCl, pH 7.5, 5 mM magnesium acetate, 250 μg/ml 5′-Nucleotidase,1 mM ECTA, and 0.15 μM 8-[H^3]-cGMP. Unless otherwise indicated, the enzyme used was a human recombinant PDE5 (ICOS Corp., Bothell, Wash.).
(§2) Compounds of the invention were dissolved in DMSO finally present at 2% in the assay.

PDE5 (bovine aorta) = biological target: T1, PDE5 (bovine aorta) (Bos taurus, UniProt Q28156); assay: Inhibitory effect on cGMP-PDE (PDE5 IC50), bovine aorta enzyme; assay type: biochemical; details: enzyme marked (bovine aorta) in the cell
T1 construct: from tissue; host or cells: bovine aorta
Procedure: as §1, §2

Compound	IC50 (recombinant human PDE5)	IC50 (PDE5 (bovine aorta))	melting point
CC(C)C[C@H]1c2[nH]c3ccccc3c2C[C@H]2C(=O)N(C)CC(=O)N21 (racemic) [Example 19, (+−,cis)-6-Isobutyl-2-methyl-2,3,6,7,12,12a-hexa-hydropyrazino[1′2′:1,6]pyrido[3,4-b]indole-1,4-dione]	4800 nM		
CN1CC(=O)N2[C@@H](C3CCCCC3)c3[nH]c4ccccc4c3C[C@H]2C1=O (racemic) [Example 20, (+−, cis)-6-Cyclohexyl-2-methyl-2,3,6,7,12,12a-hexa-hydropyrazino[1′2′:1,6]pyrido[3,4-b]indole,1,4-dione]		230 nM	
CN1CC(=O)N2[C@@H](c3cc4ccccc4o3)c3[nH]c4ccccc4c3C[C@H]2C1=O [Example 1, (6R,12aS)-6-benzofuran-2-yl-2-methyl-2,3,6,7,12,12a-hexahydro-pyrazino [1′,2′:1,6]pyrido[3,4-b]indole-1,4-dione]	130 nM		
CN1CC(=O)N2[C@H](c3cc4ccccc4o3)c3[nH]c4ccccc4c3C[C@H]2C1=O [Example 2]	8730 nM		195 to 198 °C
CN1CC(=O)N2[C@H](c3cc4ccccc4o3)c3[nH]c4ccccc4c3C[C@@H]2C1=O [Example 3, (6S,12aR)-6-benzofuran-2-yl-2-methyl-2,3,6,7,12,12a-hexahydropyrazino[1′,2′:1,6]-pyrido[3,4-b]indole-1,4-dione]	16 nM		265 to 268 °C
CN1CC(=O)N2[C@@H](c3cc4ccccc4o3)c3[nH]c4ccccc4c3C[C@@H]2C1=O [Example 4]	880 nM		
Cc1c([C@H]2c3[nH]c4ccccc4c3C[C@H]3C(=O)N(C)CC(=O)N23)sc2ccccc12 [Example 5, (6R,12aS)-2-methyl-6-(e-methyl-benzo[b]thiophen-2-yl)-2,3,6,7,12,12a-hexahydro-pyrazino[1′,2′:1,6]pyrido[3,4-b]indole-1,4-dione]	25 nM		230 to 234 °C
Cc1c([C@@H]2c3[nH]c4ccccc4c3C[C@H]3C(=O)N(C)CC(=O)N23)sc2ccccc12 [Example 6]	40 nM		
Cc1c([C@H]2c3[nH]c4ccccc4c3C[C@@H]3C(=O)N(C)CC(=O)N23)sc2ccccc12 [Example 7, (6R,12aR)-2-methyl-6-(3-methylbenzo[b]thiophen-2-yl)-2,3,6,7,12,12a-hexahydropyrazino[1′2′:1,6]-pyrido[3,4-b]indole-1,4-dione]	1570 nM		
Cc1c([C@@H]2c3[nH]c4ccccc4c3C[C@@H]3C(=O)N(C)CC(=O)N23)sc2ccccc12 [Example 8]	1 nM		
CN1CC(=O)N2[C@H](c3cc4ccoc4s3)c3[nH]c4ccccc4c3C[C@@H]2C1=O [Example 9]	12 nM		
COC[C@@H]1c2[nH]c3ccccc3c2C[C@@H]2C(=O)N(C)CC(=O)N21 [Example 15]	333 nM		
CN1CC(=O)N2[C@H](Cc3c([nH]c4ccccc34)[C@H]2COCc2ccccc2)C1=O [Example 16, (6S,12aR)-6-Benzyloxymethyl-2-methyl-2,3,6,7,12,12a-hexahydropyrazino[1′2′:1,6]pyrido-[3,4-b]indole-1,4-dione]	1500 nM		181 to 187 °C
CN1CC(=O)N2[C@H](Cc3c([nH]c4ccccc34)[C@H]2CO)C1=O [Example 17, (6S,12aR)-6-Hydroxymethyl-2-methyl-2,3,6,7,12,12a-hexahydropyrazino-[1′2′:1,6]pyrido[3,4-b]indole-1,4-dione]	23000 nM		
COCOC[C@@H]1c2[nH]c3ccccc3c2C[C@@H]2C(=O)N(C)CC(=O)N21 [Example 18, (6S,12aR)-Methoxymethoxymethyl-2-methyl-2,3,6,7,12,12a-hexahydropyrazino-[1′,2′:1,6]pyrido[3,4-b]indole-1,4-dione]	195 nM		180 to 185 °C
CN1CC(=O)N2[C@@H](C3CC=CCC3)c3[nH]c4ccccc4c3C[C@H]2C1=O (stereo partly drawn) [Example 21, (+−, cis)-6-Cyclohex-3-enyl-2-methyl-2,3,6,7,12,12a-hexahydropyrazino[1′2′:1,6]pyrido[3,4-b]indole-1,4-dione]	560 nM		
